In ChEMBL document CHEMBL1201862, “PubChem BioAssay data set” (2004):
Activity calls are given as the source filed them.

Tests used:
[1] = target: Nucleotide-binding oligomerization domain-containing protein 1 (Homo sapiens, UniProt Q9Y239); test: NOD1 signaling inhibitors, SAR follow-up, revised (AID 2333); format: functional
[2] = target: Tumor necrosis factor (Homo sapiens, UniProt P01375); test: TNFa-triggered NF-kB activation inhibitors, SAR follow-up, cell-based, revised (AID 2337); format: functional
Chain of Tumor necrosis factor (P01375 whole entry, the tested form may be a part): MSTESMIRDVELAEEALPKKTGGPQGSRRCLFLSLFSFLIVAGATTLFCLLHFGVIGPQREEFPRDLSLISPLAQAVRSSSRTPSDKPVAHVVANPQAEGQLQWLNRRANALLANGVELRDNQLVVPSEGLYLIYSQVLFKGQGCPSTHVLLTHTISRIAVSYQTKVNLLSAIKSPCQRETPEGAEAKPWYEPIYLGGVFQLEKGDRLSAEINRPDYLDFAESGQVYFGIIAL

[3] = target: Nucleotide-binding oligomerization domain-containing protein 2 (Homo sapiens, UniProt Q9HC29); test: PubChem AID 2334; format: functional
Chain of Nucleotide-binding oligomerization domain-containing protein 2 (Q9HC29 whole entry, the tested form may be a part): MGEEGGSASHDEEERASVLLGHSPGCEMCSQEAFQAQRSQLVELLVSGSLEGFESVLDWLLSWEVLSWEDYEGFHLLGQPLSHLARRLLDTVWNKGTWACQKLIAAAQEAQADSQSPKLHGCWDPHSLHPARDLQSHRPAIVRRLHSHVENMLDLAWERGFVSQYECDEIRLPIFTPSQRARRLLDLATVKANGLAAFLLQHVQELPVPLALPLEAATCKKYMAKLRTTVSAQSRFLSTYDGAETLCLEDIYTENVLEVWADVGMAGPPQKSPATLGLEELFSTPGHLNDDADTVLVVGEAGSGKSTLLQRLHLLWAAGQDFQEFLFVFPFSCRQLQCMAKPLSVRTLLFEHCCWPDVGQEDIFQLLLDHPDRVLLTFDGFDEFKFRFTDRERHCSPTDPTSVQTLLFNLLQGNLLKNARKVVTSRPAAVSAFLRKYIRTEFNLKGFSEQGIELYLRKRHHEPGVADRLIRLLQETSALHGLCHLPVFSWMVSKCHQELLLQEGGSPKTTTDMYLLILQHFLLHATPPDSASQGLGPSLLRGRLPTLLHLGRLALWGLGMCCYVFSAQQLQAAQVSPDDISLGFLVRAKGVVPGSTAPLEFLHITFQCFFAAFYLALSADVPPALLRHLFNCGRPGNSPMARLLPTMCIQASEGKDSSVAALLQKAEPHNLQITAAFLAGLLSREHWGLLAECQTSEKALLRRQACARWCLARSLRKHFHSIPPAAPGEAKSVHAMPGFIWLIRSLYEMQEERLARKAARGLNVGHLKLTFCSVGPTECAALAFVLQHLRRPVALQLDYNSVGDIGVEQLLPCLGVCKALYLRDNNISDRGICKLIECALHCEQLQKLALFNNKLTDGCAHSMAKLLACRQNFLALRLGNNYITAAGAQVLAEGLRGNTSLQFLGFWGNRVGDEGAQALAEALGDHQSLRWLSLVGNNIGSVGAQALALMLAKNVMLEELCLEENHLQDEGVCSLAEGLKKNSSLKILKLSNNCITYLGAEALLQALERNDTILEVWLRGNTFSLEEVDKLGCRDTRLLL

[4] = test system: HEK293; test: cells; settings: Homo sapiens;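 further: cells exposed to compound for 14 hours overnight before viability readout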
[5] = target: Potassium voltage-gated channel subfamily KQT member 2 (Rattus norvegicus, UniProt O88943); test: KCNQ2 channel activators, analog series, SAR follow-up, automated patch clamp, KCNQ2-CHO cells (AID 493113); format: functional
[6] = test system: Streptococcus sp. 'group A'; test: growth inhibition of control SK(-) GAS strain, dose response, counter-screen for streptokinase expression inhibitor project, luminescence, kanamycin, BacTiterGlo, confirmation (AID 1900); format: functional, organism-based
[7] = test system: Streptococcus; test: Group A Streptococcus viability loss, dose response, counter-screen for streptokinase expression inhibitor project, luminescence, BacTiterGlo (AID 1915); format: functional, organism-based;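 further: potency for reduction of bacterial viability or growth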
[8] = target: Intestinal-type alkaline phosphatase (Mus musculus, UniProt P24822); test: PubChem AID 488785; format: functional
Chain of Intestinal-type alkaline phosphatase (Mus musculus, UniProt P24822) (P24822 whole entry): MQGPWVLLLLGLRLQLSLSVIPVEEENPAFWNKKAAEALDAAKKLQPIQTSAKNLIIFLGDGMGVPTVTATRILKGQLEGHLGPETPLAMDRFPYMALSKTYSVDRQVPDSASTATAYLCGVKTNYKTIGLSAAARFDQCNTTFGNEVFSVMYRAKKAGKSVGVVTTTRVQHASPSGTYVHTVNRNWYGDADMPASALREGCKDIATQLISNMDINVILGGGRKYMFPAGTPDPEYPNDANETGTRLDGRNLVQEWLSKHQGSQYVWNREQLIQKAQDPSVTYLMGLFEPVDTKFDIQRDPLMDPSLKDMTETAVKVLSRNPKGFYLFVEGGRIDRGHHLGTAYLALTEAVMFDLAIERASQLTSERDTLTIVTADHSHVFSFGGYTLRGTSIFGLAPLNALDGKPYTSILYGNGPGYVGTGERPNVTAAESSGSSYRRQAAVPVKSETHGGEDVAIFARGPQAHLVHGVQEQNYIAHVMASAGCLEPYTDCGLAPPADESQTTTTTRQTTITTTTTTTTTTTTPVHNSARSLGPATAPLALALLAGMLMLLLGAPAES

[9] = target: Intestinal-type alkaline phosphatase (Homo sapiens, UniProt P09923); test: inhibition of human intestinal alkaline phosphatase – biochemical, dose response (AID 488876); format: functional
[10] = target: T1, Alkaline phosphatase, tissue-nonspecific isozyme (Homo sapiens, UniProt P05186); test: TNAP enzyme inhibition by screening hits, dose response, selectivity assay for mouse IAP inhibitor project, biochemical, human TNAP, uHTS hits (AID 488906); format: functional
T1 sequence (P05186 whole entry): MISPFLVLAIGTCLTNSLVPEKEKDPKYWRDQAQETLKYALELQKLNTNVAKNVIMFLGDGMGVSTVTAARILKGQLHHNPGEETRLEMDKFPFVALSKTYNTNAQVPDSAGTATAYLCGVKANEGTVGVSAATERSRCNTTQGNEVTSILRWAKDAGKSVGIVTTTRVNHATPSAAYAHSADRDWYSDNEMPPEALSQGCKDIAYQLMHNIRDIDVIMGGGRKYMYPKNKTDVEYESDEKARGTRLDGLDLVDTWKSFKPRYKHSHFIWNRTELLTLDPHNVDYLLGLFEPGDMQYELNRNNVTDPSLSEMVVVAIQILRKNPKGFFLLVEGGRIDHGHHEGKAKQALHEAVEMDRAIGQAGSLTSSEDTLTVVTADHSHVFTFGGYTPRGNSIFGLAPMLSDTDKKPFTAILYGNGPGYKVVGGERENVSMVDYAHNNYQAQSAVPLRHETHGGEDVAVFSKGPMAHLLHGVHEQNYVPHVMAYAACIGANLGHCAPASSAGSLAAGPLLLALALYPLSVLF

[11] = target: T2, Streptokinase A (Streptococcus pyogenes serotype M1, UniProt P10520); test: S. pyogenes streptokinase expression inhibitors, potency, dose response, plasminogen activation absorbance, OD405 (AID 1914); format: functional, Streptococcus pyogenes M1 GAS;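 further: secreted streptokinase activity via plasminogen activation per viability signal from cell pellet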
T2 sequence (P10520 whole entry): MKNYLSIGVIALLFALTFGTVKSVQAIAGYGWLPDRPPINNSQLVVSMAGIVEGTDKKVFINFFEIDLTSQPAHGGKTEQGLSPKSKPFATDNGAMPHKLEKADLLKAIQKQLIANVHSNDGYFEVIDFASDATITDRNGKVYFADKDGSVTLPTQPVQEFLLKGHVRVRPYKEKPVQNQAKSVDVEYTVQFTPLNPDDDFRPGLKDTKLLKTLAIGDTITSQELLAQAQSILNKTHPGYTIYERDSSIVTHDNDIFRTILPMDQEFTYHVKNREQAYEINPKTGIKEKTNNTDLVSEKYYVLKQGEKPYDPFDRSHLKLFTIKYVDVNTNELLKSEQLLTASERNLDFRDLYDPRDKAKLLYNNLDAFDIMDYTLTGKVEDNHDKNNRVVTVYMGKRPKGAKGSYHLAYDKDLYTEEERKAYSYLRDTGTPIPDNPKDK

[12] = target: Sphingosine 1-phosphate receptor 2 (Homo sapiens, UniProt O95136); test: Late stage counterscreen assay for S1P4 antagonists: Fluorescence dose response cell-based screening assay for antagonists of the Sphingosine 1-Phosphate Receptor 2 (S1P2). [Related pubchem assays (depositor defined):AID1510, AID1524, AID1692, AID1853, AID2332, AID489009, AID489017]; format: functional
[13] = target: T3, Sphingosine 1-phosphate receptor 4 (Homo sapiens, UniProt O95977); test: S1P4 receptor antagonists, human, late-stage follow-up, cell-based, fluorescence, synthesized analogues (AID 2346); format: functional
T3 sequence (O95977 whole entry): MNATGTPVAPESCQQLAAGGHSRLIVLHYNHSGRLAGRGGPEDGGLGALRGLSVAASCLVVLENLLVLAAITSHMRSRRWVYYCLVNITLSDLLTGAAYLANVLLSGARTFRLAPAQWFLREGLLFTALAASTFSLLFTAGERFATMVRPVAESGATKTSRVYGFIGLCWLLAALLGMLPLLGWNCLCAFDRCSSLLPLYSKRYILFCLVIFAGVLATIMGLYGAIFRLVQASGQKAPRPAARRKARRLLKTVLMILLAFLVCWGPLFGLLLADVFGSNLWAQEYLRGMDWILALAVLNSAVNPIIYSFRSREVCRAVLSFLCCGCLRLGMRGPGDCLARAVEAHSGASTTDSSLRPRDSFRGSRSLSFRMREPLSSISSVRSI

[14] = target: Sphingosine 1-phosphate receptor 5 (Homo sapiens, UniProt Q9H228); test: Late stage counterscreen assay for S1P4 antagonists: Fluorescence dose response cell-based screening assay for antagonists of the Sphingosine 1-Phosphate Receptor 5 (S1P5). [Related pubchem assays (depositor defined):AID1510, AID1524, AID1692, AID1853, AID2332, AID489009, AID489017]; format: functional
[15] = target: Sphingosine 1-phosphate receptor 1 (Homo sapiens, UniProt P21453); test: Late stage counterscreen assay for S1P4 antagonists: Fluorescence dose response cell-based screening assay for antagonists of the Sphingosine 1-Phosphate Receptor 1 (S1P1). [Related pubchem assays (depositor defined):AID1510, AID1524, AID1692, AID1853, AID2332, AID489009, AID489017]; format: functional
Chain of Sphingosine 1-phosphate receptor 1 (P21453 whole entry): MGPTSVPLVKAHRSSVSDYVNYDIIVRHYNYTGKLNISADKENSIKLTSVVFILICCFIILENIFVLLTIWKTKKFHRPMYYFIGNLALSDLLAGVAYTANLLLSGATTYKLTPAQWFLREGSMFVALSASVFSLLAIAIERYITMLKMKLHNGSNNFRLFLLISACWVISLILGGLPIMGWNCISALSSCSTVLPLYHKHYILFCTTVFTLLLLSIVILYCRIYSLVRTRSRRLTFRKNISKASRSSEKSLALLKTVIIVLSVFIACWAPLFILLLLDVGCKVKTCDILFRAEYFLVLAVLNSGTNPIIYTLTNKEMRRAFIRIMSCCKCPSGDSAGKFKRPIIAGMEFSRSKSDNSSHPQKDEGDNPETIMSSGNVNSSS

[16] = target: Sphingosine 1-phosphate receptor 3 (Homo sapiens, UniProt Q99500); test: Late stage counterscreen assay for S1P4 antagonists: Fluorescence dose response cell-based screening assay for antagonists of the Sphingosine 1-Phosphate Receptor 3 (S1P3). [Related pubchem assays (depositor defined):AID1510, AID1524, AID1692, AID1853, AID2332, AID489009, AID489017]; format: functional
Chain of Sphingosine 1-phosphate receptor 3 (Q99500 whole entry): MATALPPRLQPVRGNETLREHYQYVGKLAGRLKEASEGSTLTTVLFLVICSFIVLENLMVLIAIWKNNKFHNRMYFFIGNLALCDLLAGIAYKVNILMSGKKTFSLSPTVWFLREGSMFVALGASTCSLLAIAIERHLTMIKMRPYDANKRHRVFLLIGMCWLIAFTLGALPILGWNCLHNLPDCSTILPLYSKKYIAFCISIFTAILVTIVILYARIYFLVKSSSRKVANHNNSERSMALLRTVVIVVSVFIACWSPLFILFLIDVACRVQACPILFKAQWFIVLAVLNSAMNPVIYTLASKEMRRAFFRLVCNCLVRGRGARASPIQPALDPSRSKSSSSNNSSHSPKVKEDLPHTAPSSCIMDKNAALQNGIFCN

[17] = target: Hexokinase-1 (Homo sapiens, UniProt P19367); test: hexokinase 1 activators, dose response, selectivity assay for HKDC1 activator project, biochemical (AID 504762); format: functional
Chain of Hexokinase-1 (P19367 whole entry, the tested form may be a part): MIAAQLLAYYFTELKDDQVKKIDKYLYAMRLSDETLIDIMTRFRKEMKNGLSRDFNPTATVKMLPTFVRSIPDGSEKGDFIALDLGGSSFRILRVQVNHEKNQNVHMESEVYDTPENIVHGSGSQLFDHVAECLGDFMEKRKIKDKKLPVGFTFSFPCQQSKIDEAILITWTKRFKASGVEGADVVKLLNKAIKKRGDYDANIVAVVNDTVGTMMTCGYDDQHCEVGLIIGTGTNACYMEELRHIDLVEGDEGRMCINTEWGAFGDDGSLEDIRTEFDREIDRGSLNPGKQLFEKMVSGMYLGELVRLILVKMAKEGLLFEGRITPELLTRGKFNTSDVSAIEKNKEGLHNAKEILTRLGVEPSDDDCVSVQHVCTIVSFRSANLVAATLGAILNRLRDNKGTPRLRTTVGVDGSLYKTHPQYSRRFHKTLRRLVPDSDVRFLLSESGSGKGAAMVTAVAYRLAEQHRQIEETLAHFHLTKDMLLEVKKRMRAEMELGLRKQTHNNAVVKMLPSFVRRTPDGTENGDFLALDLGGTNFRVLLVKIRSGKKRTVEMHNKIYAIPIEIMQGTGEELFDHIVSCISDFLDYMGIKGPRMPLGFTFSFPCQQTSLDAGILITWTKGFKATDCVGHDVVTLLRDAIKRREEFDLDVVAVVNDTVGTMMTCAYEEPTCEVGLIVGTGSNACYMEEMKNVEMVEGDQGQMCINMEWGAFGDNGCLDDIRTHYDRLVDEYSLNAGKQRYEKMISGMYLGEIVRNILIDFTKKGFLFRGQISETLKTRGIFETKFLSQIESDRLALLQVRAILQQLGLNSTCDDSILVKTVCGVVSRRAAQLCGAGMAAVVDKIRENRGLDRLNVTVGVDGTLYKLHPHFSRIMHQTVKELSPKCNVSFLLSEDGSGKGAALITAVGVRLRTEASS

[18] = Fluorescence-based cell-based high throughput dose response assay for inhibitors of the interaction of nucleotide-binding oligomerization domain containing 2 (NOD2) and the receptor-interacting serine-threonine kinase 2 (RIPK2).; format: functional; settings: Homo sapiens
[19] = target: Scavenger receptor class B member 1 (Mus musculus, UniProt Q61009); test: inhibitors of SR-BI mediated HDL lipid uptake, dose response, ldlA[mSR-BI] cells, fluorescence, cherry pick (AID 493194); format: functional, cell-based;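 further: cellular uptake of fluorescent DiI-labeled HDL measured as cell fluorescence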
Chain of Scavenger receptor class B member 1 (Q61009 whole entry): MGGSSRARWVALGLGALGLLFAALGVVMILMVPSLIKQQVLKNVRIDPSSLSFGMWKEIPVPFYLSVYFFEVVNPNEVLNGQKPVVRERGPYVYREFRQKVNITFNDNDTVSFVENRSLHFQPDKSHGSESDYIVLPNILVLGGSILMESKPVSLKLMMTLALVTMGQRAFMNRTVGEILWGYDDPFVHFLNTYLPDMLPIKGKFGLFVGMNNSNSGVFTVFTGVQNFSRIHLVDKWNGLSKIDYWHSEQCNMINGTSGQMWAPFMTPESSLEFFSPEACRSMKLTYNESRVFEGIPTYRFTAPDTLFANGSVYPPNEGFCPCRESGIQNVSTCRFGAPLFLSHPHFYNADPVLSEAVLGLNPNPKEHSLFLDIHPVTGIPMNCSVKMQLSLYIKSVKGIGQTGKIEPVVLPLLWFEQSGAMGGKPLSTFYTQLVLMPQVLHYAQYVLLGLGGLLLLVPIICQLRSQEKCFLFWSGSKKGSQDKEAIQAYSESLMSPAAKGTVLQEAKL

[20] = target: Hexokinase HKDC1 (Homo sapiens, UniProt Q2TB90); test: HKDC1 hexokinase activators, dose response, biochemical, W721R variant (AID 504730); format: functional
Chain of Hexokinase HKDC1 (Q2TB90 whole entry): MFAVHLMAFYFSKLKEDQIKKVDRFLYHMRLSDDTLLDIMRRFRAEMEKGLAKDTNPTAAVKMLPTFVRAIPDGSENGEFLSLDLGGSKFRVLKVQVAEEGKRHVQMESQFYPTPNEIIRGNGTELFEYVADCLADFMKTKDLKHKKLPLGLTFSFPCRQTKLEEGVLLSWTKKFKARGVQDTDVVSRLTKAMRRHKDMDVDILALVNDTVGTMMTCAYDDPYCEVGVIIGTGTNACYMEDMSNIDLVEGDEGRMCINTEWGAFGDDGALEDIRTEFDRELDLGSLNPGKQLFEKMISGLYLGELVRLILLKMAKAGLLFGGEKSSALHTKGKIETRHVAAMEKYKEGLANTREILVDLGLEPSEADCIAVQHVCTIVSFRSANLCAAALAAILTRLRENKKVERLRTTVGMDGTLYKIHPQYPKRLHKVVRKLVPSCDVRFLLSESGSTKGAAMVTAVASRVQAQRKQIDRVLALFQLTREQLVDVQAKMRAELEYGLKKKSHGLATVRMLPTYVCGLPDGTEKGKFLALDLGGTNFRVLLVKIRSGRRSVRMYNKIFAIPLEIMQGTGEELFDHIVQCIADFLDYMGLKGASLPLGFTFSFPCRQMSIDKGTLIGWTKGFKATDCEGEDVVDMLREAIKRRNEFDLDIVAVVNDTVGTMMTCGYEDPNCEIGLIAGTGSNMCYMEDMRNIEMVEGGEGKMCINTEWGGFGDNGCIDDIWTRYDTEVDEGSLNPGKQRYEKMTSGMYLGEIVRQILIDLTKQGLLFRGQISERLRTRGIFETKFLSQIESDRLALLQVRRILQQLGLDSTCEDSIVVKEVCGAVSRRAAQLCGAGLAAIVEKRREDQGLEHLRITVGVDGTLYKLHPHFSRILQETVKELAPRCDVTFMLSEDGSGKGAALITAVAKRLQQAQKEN

[21] = target: T4, Histone-lysine N-methyltransferase NSD2 (Homo sapiens, UniProt O96028); format: biochemical
T4 sequence (O96028 whole entry): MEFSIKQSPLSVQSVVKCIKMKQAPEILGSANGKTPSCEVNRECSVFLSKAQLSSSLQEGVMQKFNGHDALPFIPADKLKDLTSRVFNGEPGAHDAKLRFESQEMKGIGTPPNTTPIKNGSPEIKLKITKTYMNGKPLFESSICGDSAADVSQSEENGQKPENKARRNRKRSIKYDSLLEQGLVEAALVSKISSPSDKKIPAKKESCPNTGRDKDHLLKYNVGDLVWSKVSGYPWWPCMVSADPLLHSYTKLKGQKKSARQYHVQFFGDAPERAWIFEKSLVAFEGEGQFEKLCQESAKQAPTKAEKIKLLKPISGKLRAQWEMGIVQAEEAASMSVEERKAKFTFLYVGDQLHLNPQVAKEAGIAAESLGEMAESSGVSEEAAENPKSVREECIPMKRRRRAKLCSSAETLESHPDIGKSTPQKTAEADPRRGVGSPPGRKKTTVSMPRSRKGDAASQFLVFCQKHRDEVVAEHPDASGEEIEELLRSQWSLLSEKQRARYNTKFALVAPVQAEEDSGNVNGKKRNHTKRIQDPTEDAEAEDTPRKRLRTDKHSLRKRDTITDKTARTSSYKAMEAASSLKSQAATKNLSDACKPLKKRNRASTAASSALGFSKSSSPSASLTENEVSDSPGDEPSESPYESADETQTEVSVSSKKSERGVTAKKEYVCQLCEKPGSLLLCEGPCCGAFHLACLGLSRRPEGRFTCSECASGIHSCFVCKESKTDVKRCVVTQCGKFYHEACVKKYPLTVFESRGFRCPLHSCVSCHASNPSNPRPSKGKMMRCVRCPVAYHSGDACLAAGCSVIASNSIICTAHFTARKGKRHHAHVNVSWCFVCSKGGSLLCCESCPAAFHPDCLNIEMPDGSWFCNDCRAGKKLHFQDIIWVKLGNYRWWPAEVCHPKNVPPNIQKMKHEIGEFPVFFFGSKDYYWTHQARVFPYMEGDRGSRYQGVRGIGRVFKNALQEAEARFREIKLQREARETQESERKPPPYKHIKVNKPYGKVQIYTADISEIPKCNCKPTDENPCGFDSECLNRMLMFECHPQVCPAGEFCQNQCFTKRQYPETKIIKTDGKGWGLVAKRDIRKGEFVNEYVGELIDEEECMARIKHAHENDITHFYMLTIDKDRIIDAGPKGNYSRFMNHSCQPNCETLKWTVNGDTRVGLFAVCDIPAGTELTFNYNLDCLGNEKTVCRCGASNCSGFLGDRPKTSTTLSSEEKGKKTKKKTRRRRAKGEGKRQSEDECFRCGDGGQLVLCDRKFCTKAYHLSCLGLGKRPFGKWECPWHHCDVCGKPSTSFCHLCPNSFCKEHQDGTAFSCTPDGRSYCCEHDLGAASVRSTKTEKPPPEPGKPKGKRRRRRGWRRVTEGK

**Q.** For `O=C(Nc1nc2ccccc2n1Cc1ccc(Cl)cc1)c1ccc(Cl)cc1`, which IC50 [1] is on record?
**A.** Its IC50 is > 20 µM (inactive).

**Q.** What about the IC50 [2] of the same compound?
**A.** Its IC50 is > 20 µM (inactive).

**Q.** And the IC50 [3]?
**A.** Its IC50 is > 20 µM (inactive).

**Q.** What about the IC50 [4] of the same compound?
**A.** Its IC50 is > 20 µM (inactive).

**Q.** For `Cc1cc(C)c(NC(=O)C2CCCCC2)c(C)c1`, which EC50 [5] is on record?
**A.** The EC50 was 1.57 µM (active).

**Q.** Which EC50 [6] does the source give for `Cc1c(Cl)cccc1N=C(S)NCCC(c1ccccc1)c1ccccc1` here?
**A.** Its EC50 is 8.52 µM (active).

**Q.** What about the EC50 [7] of the same compound?
**A.** The EC50 was > 150 µM (not active).

**Q.** And the IC50 [8]?
**A.** Its IC50 is 8.34 µM (active).

**Q.** And the IC50 [9]?
**A.** Its IC50 is 42.4 µM (active).

**Q.** What about the IC50 [10] of the same compound?
**A.** Its IC50 is 29 µM (active).

**Q.** And the EC50 [11]?
**A.** The EC50 was 3.76 µM (active).

**Q.** What does the source list for `CCc1cccc(C)c1NC(=O)c1ccc(-c2cc(OC)ccc2OC)o1`?
**A.** IC50 [12]: > 25 µM (inactive); IC50 [13]: 0.513 µM (active); IC50 [14]: > 25 µM (inactive); IC50 [15]: > 25 µM (inactive); IC50 [16]: > 25 µM (inactive)

**Q.** Which EC50 [17] does the source give for `CC(=O)OC1C2(CC3N4C(=O)C5(CO)SSC4(CC31O)C(=O)N5C)OC(C)C(C)(C)C2=O` (stereo unspecified) here?
**A.** The EC50 was > 80 µM (inactive).

**Q.** What about the IC50 [18] of the same compound?
**A.** The IC50 was 3.64 µM (active).

**Q.** What about the AC50 [19] of the same compound?
**A.** Its AC50 is 5.61 µM (active).

**Q.** What about the EC50 [20] of the same compound?
**A.** The EC50 was 0.212 µM (active).

**Q.** And the AC50 [21]?
**A.** Its AC50 is 1.06 µM (active).
